# Test results as given in US11279703B2, “Fused pyrimidine compounds as BRD4 and JAK2 dual inhibitors and methods for use thereof” (APTOSE BIOSCIENCES INC., priority 2016, dated 2022).
# Tests used:
# JAK2 = JAK2 (Homo sapiens (Human), UniProt O60674); experiment: HTRF kinase assay, JAK2; assay type: biochemical
# Source text: A kinase assay with HTRF was used to observe JAK activity and calculate the IC50s of compounds disclosed herein. HTRF is an enzymatic assay used to determine the amount of phosphorylated peptide. FRET (Fluorescence Resonance Energy Transfer) is based on the transfer of energy between two fluorophores—a donor and an acceptor—when in close proximity. Molecular interactions between biomolecules can be assessed by coupling each partner with a fluorescent label and by detecting the level of energy transfer. The amount of phopshorylated peptide can be detected using a combination of a Eu 3+Cryptate labeled anti-phospho residue antibody, SA-XL665 and a biotinylated substrate. The signal is proportional to the concentration of phospho-residues.
# Equipment Required • 1. […] Plate centrifuge • 3. Plate shaker • 4. […] Single channel and multi-channel pipettes • 6. Microplate reader (Pherastar)]
# Stock and Final Assay Concentrations (FAC) • 1. All reference and test compounds are made at a concentration of 10 mM in DMSO. Compounds are serially diluted in DMSO and a FAC starting from 10 μM to 10 point 3 fold serial dilutions is arrived. For Ruxolitinib the starting FAC is 1 μM. FAC of DMSO is 1%. • 2. Enzyme stock and FAC
# • JAK-1: Invtirogen Cat: PR8767C • JAK-2: Invtirogen Cat: PR7820B • JAK-3: Invtirogen Cat: PR7507B • 3. Substrate (synthetic peptide-Biotinylated-N-terminal tag-[…] from Biopeptide) stock and FAC
# • Adenosine 5′-triphosphate disodium salt hydrate: Sigma Cat: A26209 • 5. […] Buffers • Base buffer (for 50 ml)
# • HTRF buffer: • 50 mM Tris-HCl, pH—7.5 • 100 mM NaCl • 0.1% BSA • 0.05% Tween20 • 0.5 mM EDTA
# To a 384 well black-plate: • 1. Add 17 μL of the buffer to each well of the 384-well black plate • 2. […] Add 5 μl of the enzyme to each well of the plate • 4. Add 10 μl of the substrate and ATP mix to all the wells • 5. Cover with plate sealer • 6. […] Incubate at room temperature for 1 hour on shaker • 8. […] Add 37.5 μL of the HTRF mix to these wells. • 9. Incubate the plate at room temperature on shaker for 45 minutes. • 10.
# (§1) The percent inhibition is calculated in the excel analysis template and the IC50 values are subsequently determined using a sigmoidal dose-response curve (variable slope) using GraphPad Prism® 5 software.
# BRD4-BD1 = BRD4-BD1 (Homo sapiens (Human), UniProt O60885); experiment: AlphaLisa bromodomain binding assay, BRD4-BD1; details: Table 6; read-out: BRD4(1) IC50
# Source text: An AlphaLisa assay was used to observe bromodomain binding and measure IC50s for the compounds disclosed herein. An AlphaLisa assay is a bead-based assay used to detect interactions between bromodomains and polyacetylated histone peptides. Donor and acceptor beads bound to target and ligand are brought into proximity by this protein-protein interaction.
# Equipment Required • 1. […] Plate centrifuge • 3. Plate shaker • 4. […] Single channel and multi-channel pipettes • 6. Microplate reader (Pherastar)
# Stock and Final Assay Concentrations (FAC) • 1. All reference and test compounds are made at a concentration of 10 mM in DMSO. Compounds are serially diluted in DMSO and a FAC starting from 10 μM to 10 point 3 fold serial dilutions is arrived. FAC of DMSO is 1%. • 2. Enzyme stock and FAC
# Biotinylated substrate (Acetylated histone H4, biotinylated substrate—cat no. AS64989-025, Anaspec) stock and FAC
# • 4. Acceptor and donor beads stock and FAC
# Buffers • For the enzyme and substrate dilution following buffer is used (for 50 ml) • HEPES: 50 mM 2.5 ml • NaCl: 25 mM 1.25 ml • DTT: 10 mM 0.05 ml • BSA: 0.1% 0.05 g • MilliQ water: 45.7 ml • For dilution of acceptor and donor beads AlphaLISA 5× epigenetics Buffer Perkin Elmer (Cat: AL008C) is used at 1× concentration.
# Procedure • 1. […] Tap the plate gently • 3. […] Cover with plate sealer • 5. […] Incubate the plate at room temperature for 10 minutes • 7. Add 10 μl of the substrate • 8. Cover with plate sealer • 9. […] Cover with plate sealer • 14. […] Cover with plate sealer • 18.
# as §1
# Sequence of JAK2 (O60674 whole entry): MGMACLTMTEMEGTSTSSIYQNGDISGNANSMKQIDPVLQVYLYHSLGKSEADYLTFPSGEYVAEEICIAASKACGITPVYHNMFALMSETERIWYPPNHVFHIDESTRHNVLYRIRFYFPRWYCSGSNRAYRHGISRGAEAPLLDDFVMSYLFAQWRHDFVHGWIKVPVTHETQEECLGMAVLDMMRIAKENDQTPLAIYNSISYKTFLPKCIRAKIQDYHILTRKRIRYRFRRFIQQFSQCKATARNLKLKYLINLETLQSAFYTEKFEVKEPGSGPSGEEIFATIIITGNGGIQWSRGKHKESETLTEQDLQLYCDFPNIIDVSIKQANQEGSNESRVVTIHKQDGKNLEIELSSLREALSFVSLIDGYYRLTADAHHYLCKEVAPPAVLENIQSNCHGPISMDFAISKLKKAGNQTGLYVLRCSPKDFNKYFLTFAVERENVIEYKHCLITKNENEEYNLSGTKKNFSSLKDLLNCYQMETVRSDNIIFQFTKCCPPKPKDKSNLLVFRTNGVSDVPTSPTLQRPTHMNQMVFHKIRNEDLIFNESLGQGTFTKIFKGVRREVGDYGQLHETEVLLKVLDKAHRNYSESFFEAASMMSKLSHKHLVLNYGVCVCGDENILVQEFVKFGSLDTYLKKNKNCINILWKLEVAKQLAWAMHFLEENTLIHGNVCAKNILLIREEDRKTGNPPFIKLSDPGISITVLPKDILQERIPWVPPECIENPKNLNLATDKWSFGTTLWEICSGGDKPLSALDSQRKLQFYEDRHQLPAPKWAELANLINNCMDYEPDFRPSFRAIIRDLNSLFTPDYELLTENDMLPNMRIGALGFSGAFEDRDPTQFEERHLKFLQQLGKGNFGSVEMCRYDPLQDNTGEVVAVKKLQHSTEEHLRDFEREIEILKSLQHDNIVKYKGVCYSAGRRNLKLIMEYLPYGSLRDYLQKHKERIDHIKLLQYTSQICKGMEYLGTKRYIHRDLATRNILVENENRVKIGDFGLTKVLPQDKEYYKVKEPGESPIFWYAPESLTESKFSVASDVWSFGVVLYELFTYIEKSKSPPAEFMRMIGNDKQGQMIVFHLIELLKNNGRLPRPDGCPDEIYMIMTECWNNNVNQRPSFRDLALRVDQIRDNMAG
SMILES,IC50 (JAK2; Table 3) [µM],IC50 (JAK2; Table 6) [µM],IC50 (BRD4-BD1) [µM],IC50 (JAK2; Table 4) [µM]
CN1CCN(c2ccc(Nc3ncc4scc(-c5cccc(NS(=O)(=O)C(C)(C)C)c5)c4n3)cc2)CC1,0.0048,–,–,–
O=C1Cc2c(cccc2-c2ccnc(Nc3ccccc3)n2)N1,–,6.78,–,–
COc1cccc(Nc2nccc(-c3cccc4c3CC(=O)N4)n2)c1,–,2.25,–,–
Cc1cnc(Nc2ccc(N3CCN(C)CC3)cc2)nc1-n1ccc2c1CCNC2=O,–,5.92,5.72,–
CN1CCN(c2ccc(Nc3nccc(Nc4cccc5c4CC(=O)N5)n3)cc2)CC1,–,0.387,–,–
CN1CCN(c2ccc(Nc3cc(Nc4cccc(NS(=O)(=O)C(C)(C)C)c4)c4sccc4n3)cc2)CC1,–,4.65,2.86,–
Cc1cnc(Nc2ccc(N3CCN(C)CC3)cc2)nc1-n1ccc(C(=O)NC2CC2)c1,–,0.03,–,–
CC1CNCCC1Nc1nc(Nc2cccc(NS(=O)(=O)C(C)(C)C)c2)c2ccsc2n1 (centres unmarked),–,10,1.98,–
CC1(C)CNCCC1Nc1cc(Nc2cccc(NS(=O)(=O)C(C)(C)C)c2)c2ccsc2c1 (centres unmarked),–,10,2.83,–
CC1CNCCC1Nc1nc(Nc2ccc3c(c2)N(S(=O)(=O)C(C)(C)C)CC3)c2ccsc2n1 (centres unmarked),–,10,5.8,–
CC(C)(C)S(=O)(=O)Nc1cc(Nc2nc(NC3CCNCC3)nc3ccsc23)ccc1Cl,–,10,3.27,–
CN1CCN(c2ccc(Nc3nc(Nc4ccc(Cl)c(NS(=O)(=O)C(C)(C)C)c4)c4sccc4n3)cc2)CC1,–,10,2.68,–
CN1CCC(Nc2nc(Nc3ccc(Cl)c(NS(=O)(=O)C(C)(C)C)c3)c3sccc3n2)CC1,–,10,0.9,–
Cc1sc2c(c1C)C(c1ccc(Cl)cc1)=N[C@@H](CC(=O)OC(C)(C)C)c1nnc(C)n1-2,–,10,–,–
CC1CNCC(C)C1Nc1nc(Nc2cccc(NS(=O)(=O)C(C)(C)C)c2)c2ccsc2n1 (centres unmarked),–,10,10,–
CC(C)(C)S(=O)(=O)Nc1cccc(Nc2nc(NC3CCN(c4ccccc4)CC3)nc3sccc23)c1,–,10,10,–
CC(C)(C)S(=O)(=O)Nc1cccc(Nc2nc(NC3CCN(C(N)=O)CC3)nc3sccc23)c1,–,10,3.03,–
CN(c1cccc(Nc2nc(NC3CCNCC3)nc3sccc23)c1)S(=O)(=O)C(C)(C)C,–,10,0.87,–
CN1CCN(c2ccc(Nc3nc(-n4ccc(C(=O)NC5CC5)c4)c4ccsc4n3)cc2F)CC1,–,10,10,–
CN1CCC(Nc2nc(Nc3cccc(N(C)S(=O)(=O)C(C)(C)C)c3)c3ccsc3n2)CC1,–,10,0.94,–
CN1CCN(c2ccc(Nc3nc(Nc4cccc(NS(=O)(=O)C(C)(C)C)c4)c4ncsc4n3)cc2)CC1,–,10,1.54,–
COc1nc(Nc2ccc(N3CCN(C)CC3)cc2)nc2c1ccn2-c1cccc(NS(=O)(=O)C(C)(C)C)c1,–,10,5.16,–
CC(C)(C)S(=O)(=O)Nc1cccc(Nc2nc(NC3CCNC(=O)C3)nc3sccc23)c1 (centres unmarked),–,10,1.21,–
CN1CCN(c2ccc(Nc3nc(Nc4cccc(NS(=O)(=O)C(C)(C)C)c4)c4cc[nH]c4n3)cc2)CC1,–,0.032,1.68,–
COc1nc(NC2CCNCC2)nc2c1ccn2-c1cccc(NS(=O)(=O)C(C)(C)C)c1,–,3.01,0.122,–
CC(C)(C)S(=O)(=O)Nc1cccc(Nc2nc(NC3CC4CC3CN4)nc3sccc23)c1 (centres unmarked),–,4.17,0.26,–
CN1CCN(c2ccc(Nc3ncc4ccn(-c5ccc6c(c5)N(S(=O)(=O)C(C)(C)C)CC6)c4n3)cc2)CC1,–,0.032,1.41,–

SMILES,IC50 (JAK2; Table 3) [µM],IC50 (JAK2; Table 6) [µM],IC50 (BRD4-BD1) [µM],IC50 (JAK2; Table 4) [µM]
CC(C)S(=O)(=O)Nc1cccc(-n2ccc3cnc(Nc4ccc(N5CCN(C)CC5)cc4)nc32)c1,–,0.0082,1.02,–
CN1CCN(c2ccc(Nc3ncc4ccn(-c5ccc6c(c5)N(S(=O)(=O)C(C)(C)C)CC6)c4n3)cc2F)CC1,–,0.038,1.3,–
CC(C)(C)S(=O)(=O)N1CCc2ccc(-n3ccc4cnc(Nc5ccc(N6CCNCC6)cc5)nc43)cc21,–,0.04,1.94,–
CC(C)(C)S(=O)(=O)Nc1cccc(Nc2nc(NC3CCNCC3)nc3[nH]ccc23)c1,–,10,10,–
CN1CCN(c2ccc(Nc3ncc4ccn(-c5cccc(NS(=O)(=O)C(C)(C)C)c5)c4n3)cc2Cl)CC1,–,0.008,1.13,–
CC(C)(C)S(=O)(=O)Nc1cccc(-n2ccc3cnc(NC4CCNCC4)nc32)c1,–,10,10,–
CN1CCC(Nc2ncc3ccn(-c4cccc(NS(=O)(=O)C(C)(C)C)c4)c3n2)CC1,–,1000,0.284,–
CN1CCN(c2ccc(Nc3ncc4ccn(-c5ccc(F)c(NS(=O)(=O)C6CC6)c5)c4n3)cc2)CC1,–,0.0153,1.49,–
Cc1ccc(-n2ccc3cnc(Nc4ccc(N5CCN(C)CC5)cc4)nc32)cc1NS(=O)(=O)C1CC1,–,0.0197,3.06,–
O=S(=O)(Nc1cc(-n2ccc3cnc(Nc4ccc(N5CCNCC5)cc4)nc32)ccc1F)C1CC1,–,0.0143,1.04,–
CC(C)(C)S(=O)(=O)Nc1cccc(-n2ccc3cnc(Nc4ccc(N5CCOCC5)cc4)nc32)c1,–,0.0244,5.53,–
Cc1ccc(-n2ccc3cnc(Nc4ccc(N5CCN(C)CC5)cc4)nc32)cc1NS(=O)(=O)C(C)(C)C,–,0.23,0.68,–
Cc1ccc(-n2ccc3cnc(Nc4ccc(N5CCNCC5)cc4)nc32)cc1NS(=O)(=O)C(C)(C)C,–,0.176,0.641,–
Cc1ccc(-n2ccc3cnc(Nc4ccc(N5CCNCC5)cc4)nc32)cc1NS(=O)(=O)C1CC1,–,0.031,2.2,–
CN1CCN(c2ccc(Nc3ncc4ccn(-c5ccc(Cl)c(NS(=O)(=O)C(C)(C)C)c5)c4n3)cc2)CC1,–,0.165,0.481,–
CC(=O)N1CCN(c2ccc(Nc3ncc4ccn(-c5cccc(NS(=O)(=O)C(C)(C)C)c5)c4n3)cc2)CC1,–,0.045,–,–
CN1CCN(c2ccc(Nc3ncc4ccn(-c5cccc(NS(=O)(=O)C6CC6)c5)c4n3)cc2)CC1 [drawing 61],0.0025,–,–,–
CN1CCN(c2ccc(Nc3ncc4ccn(-c5cccc(NS(=O)(=O)c6ccccc6)c5)c4n3)cc2)CC1 [drawing 62],0.003,–,–,–
O=S(=O)(Nc1cccc(-n2ccc3cnc(Nc4ccc(N5CCNCC5)cc4)nc32)c1)C1CC1 [drawing 63],0.002,–,–,–
CN1CCN(c2ccc(Nc3ncc4ccn(-c5cccc(NS(=O)(=O)C6CC6)c5)c4n3)cc2)CC1 [drawing 64],0.0043,–,–,–
CN(C)C1CCN(c2ccc(Nc3ncc4ccn(-c5cccc(NS(=O)(=O)C(C)(C)C)c5)c4n3)cc2F)CC1 [drawing 65],0.0044,–,–,–
Cc1noc(C)c1-c1cccc(-n2ccc3cnc(Nc4ccc(N5CCN(C)CC5)cc4)nc32)c1 [drawing 67],0.003,–,–,–
O=S(=O)(Nc1cccc(-n2ccc3cnc(Nc4ccc(N5CCNCC5)cc4)nc32)c1)C1CC1 [drawing 68],0.005,–,–,–
CN1CCN(c2ccc(Nc3ncc4ccn(-c5ccc(NS(=O)(=O)C(C)(C)C)cc5)c4n3)cc2)CC1 [drawing 69],–,–,–,0.0007
CN1CCN(c2ccc(Nc3ncc4ccn(-c5ccc(CNS(=O)(=O)C(C)(C)C)cc5)c4n3)cc2)CC1 [drawing 70],–,–,–,0.00018
CN1CCN(c2ccc(Nc3ncc4ccn(-c5ccc6c(c5)CCN6S(=O)(=O)C(C)(C)C)c4n3)cc2)CC1 [drawing 71],–,–,–,0.0006
